Assay results reported in EP0528997B1, “DISULFIDE DERIVATIVES OF MERCAPTOACYLAMINO ACIDS” (SCHERING CORPORATION, priority 1990, dated 1991).

Legend:
[1] = tested on: DOCA salt hypertension in the rat; experiment: DOCA salt hypertension model (antihypertensive effect); assay type: in vivo, Sprague Dawley rats; details: drop in blood pressure
[2] = tested on: spontaneously hypertensive rats (SHR); experiment: ANF potentiation procedure (antihypertensive effect in combination with ANF); assay type: in vivo; details: drop in blood pressure; 30 mg/kg sc
Experimental: The antihypertensive effect of mercaptoacylamino acid disulfide derivatives in combination with ANF can be determined according to the following procedures:
Male spontaneously hypertensive rats (SHR), 16-18 weeks old, 270-350 g, are anesthetized with ether and the abdominal aorta is cannulated through the tail artery. The animals are then placed into restrainers to recover from anesthesia (in less than 10 min.) and remain inside throughout the experiments. Through a pressure transducer (Gould P23 series) analog blood pressure signals are registered on a Beckman 612 recorder. A Buxco digital computer is used to obtain mean arterial pressures. Patency of the arterial cannula is maintained with a continuous infusion of 5% dextrose at 0.2 ml/hr. Animals are allowed a 90-min equilibration period. The animals first undergo a challenge with an ANF such as atriopeptin II (AP II) or AP28 30 »g/kg iv and at the end of 60 min. are treated with drug vehicle or a mercapto-acylamino acid subcutaneously. A second ANF challenge is administered 15 min. later and blood pressure is monitored for the next 90 min.

Row | SMILES | DOCA Salt ΔBP (mmHg) ([1]; 3 mg/kg po) | ANF Potentiation ΔBP (mmHg) [2] | DOCA Salt ΔBP (mmHg) ([1]; 1 mg/kg po) | DOCA Salt ΔBP (mmHg) ([1]; 10 mg/kg po) | DOCA Salt ΔBP (mmHg) ([1]; 0.1 mg/kg po)
1 | CCOC(=O)[C@H](CCSC)NC(=O)[C@@H](CSSC[C@@H](Cc1ccccc1C)C(=O)N[C@@H](CCSC)C(=O)OCC)Cc1ccccc1C [Example 1, 1,1'-[DITHIOBIS-[2(S)-(2-METHYLBENZYL)-1-OXO-3,1-PROPANEDIYL]]BIS-(S)-METHIONINE DIETHYL ESTER] | 15 mmHg | 0 mmHg | – | – | –
2 | CSCC[C@H](NC(=O)[C@@H](CSSC[C@@H](Cc1ccccc1C)C(=O)N[C@@H](CCSC)C(=O)O)Cc1ccccc1C)C(=O)O [Example 2, 1,1'-[DITHIOBIS-[2(S)-(2-METHYLBENZYL)-1-OXO-3,1-PROPANEDIYL]]BIS-(S)-METHIONINE] | – | 27 mmHg | 41 mmHg | 57 mmHg | –
3 | CCOC(=O)[C@@H](O)CNC(=O)[C@@H](CSSC[C@@H](Cc1ccccc1C)C(=O)NC[C@H](O)C(=O)OCC)Cc1ccccc1C [Example 3, 1,1'-[DITHIOBIS-[2(S)-(2-METHYLBENZYL)-1-OXO-3,1-PROPANEDIYL]]BIS-(S)-ISOSERINE DIETHYL ESTER] | – | 29 mmHg | 30 mmHg | 44 mmHg | 31 mmHg
4 | Cc1ccccc1C[C@H](CSSC[C@@H](Cc1ccccc1C)C(=O)NC[C@H](O)C(=O)O)C(=O)NC[C@H](O)C(=O)O [Example 4, 1,1'-[DITHIOBIS-[2(S)-(2-METHYLBENZYL)-1-OXO-3,1-PROPANEDIYL]]BIS-(S)-ISOSERINE] | – | 24 mmHg | 21 mmHg | 31 mmHg | 0 mmHg
